Measured values published in patent publication US20090176817A1, “Method of Treatment of Diarrhea-Predominant Irritable Bowel Syndrome in a Subject” (priority 2005, published 2009).

System: diarrhea-predominant IBS subjects
Test: Study S241.3.009: weekly diary questions on adequate relief
Format: in vivo, human
Details: for Responder rate, adequate relief of abnormal bowel habits / Responder rate, adequate relief of IBS symptoms / Responder rate, adequate relief of abdominal pain/discomfort: monthly LOCF imputation; for Responder rate, adequate relief of abnormal bowel habits / Overall responder rate, adequate relief of IBS symptoms / Overall responder rate, adequate relief of abdominal pain/discomfort / Overall responder rate, adequate relief of abnormal bowel habits / Number of months a subject was a responder: One month (Abdominal pain/discomfort) / Number of months a subject was a responder: One month (Abnormal bowel habits) / Number of months a subject was a responder: One month (IBS symptoms) / Number of months a subject was a responder: Three months (Abdominal pain/discomfort) / Number of months a subject was a responder: Three months (Abnormal bowel habits) / Number of months a subject was a responder: Three months (IBS symptoms) / Number of months a subject was a responder: Two months (Abdominal pain/discomfort) / Number of months a subject was a responder: Two months (Abnormal bowel habits) / Number of months a subject was a responder: Two months (IBS symptoms) / Number of months a subject was a responder: Zero months (Abdominal pain/discomfort) / Number of months a subject was a responder: Zero months (Abnormal bowel habits) / Number of months a subject was a responder: Zero months (IBS symptoms) / Responder rate, adequate relief of IBS symptoms / Responder rate, adequate relief of abdominal pain/discomfort: ITT, 2 mg TID; for Overall responder rate, adequate relief of IBS symptoms / Overall responder rate, adequate relief of abdominal pain/discomfort / Overall responder rate, adequate relief of abnormal bowel habits: 26-week treatment period, observed case; for Number of months a subject was a responder: One month (Abdominal pain/discomfort) / Number of months a subject was a responder: One month (Abnormal bowel habits) / Number of months a subject was a responder: One month (IBS symptoms) / Number of months a subject was a responder: Three months (Abdominal pain/discomfort) / Number of months a subject was a responder: Three months (Abnormal bowel habits) / Number of months a subject was a responder: Three months (IBS symptoms) / Number of months a subject was a responder: Two months (Abdominal pain/discomfort) / Number of months a subject was a responder: Two months (Abnormal bowel habits) / Number of months a subject was a responder: Two months (IBS symptoms) / Number of months a subject was a responder: Zero months (Abdominal pain/discomfort) / Number of months a subject was a responder: Zero months (Abnormal bowel habits) / Number of months a subject was a responder: Zero months (IBS symptoms): monthly LOCF
Protocol: Study S241.3.009 was a Phase III, a double-blind, placebo-controlled, randomized, multinational study to investigate the safety and efficacy of 2 mg TID of cilansetron over 26 weeks in diarrhea-predominant IBS subjects. The study was conducted in 146 multinational study centers. A total of 1307 subjects consented to participate, and 806 subjects were randomized. A total of 792 subjects were analyzed for efficacy and 799 subjects were analyzed for safety. Diagnosis and main criteria for inclusion were IBS subjects satisfying the Rome I criteria (1992); the diarrhea-predominant sub-population of the Rome II criteria; and a minimum abdominal pain/discomfort, stool frequency and consistency determined during the run-in period. Subjects were treated with cilansetron 2 mg tablets given orally TID or matching placebo tablets given orally TID for 26 weeks.
The primary efficacy parameter was the overall response rate for IBS symptoms, based on the weekly question concerning adequate relief of IBS symptoms (abdominal pain/discomfort, abnormal bowel habits) over the 26 weeks period. A responder was a subject who responded “yes” at least 50% of the time during his/her treatment period, with minimum treatment duration of four weeks. The two main secondary efficacy parameters were overall responder rate based on the weekly question on adequate relief of abdominal pain/discomfort and abnormal bowel habits during the 26-week treatment period. The onset of action of cilansetron was also examined using daily diary data (stool frequency, and ratings of urgency and severity) during the initial 8 weeks of trial participation. An additional key secondary efficacy parameter was the number of months (one month equals four weeks) up to six months (24-weeks) that a subject was a responder for IBS symptoms, where a responder was defined as a subject who answered the weekly question with “yes” at least twice for that month. The responder rate for the weekly diary questions on adequate relief at each month and all months, the adequate relief rate, the number of subjects with adequate relief by week, daily diary questions, IBS-QOL scores, and the interruption of activities were also assessed. Safety was evaluated by physical examination, ECG, vital signs, laboratory evaluations, concomitant medications, and AEs.
Studies S24 1.3.OO6, S24 1.3.0 1 1, and S24 1.3.009 used the following efficacy measurements: • The subjects answered the following three questions with “yes” or “no” using a phone diary at the end of each week: • a) During the last week, did you experience adequate relief of your IBS symptoms, such as abdominal pain, abdominal discomfort, abnormal bowel habits? • b) During the last week, did you experience adequate relief of your abdominal pain and/or discomfort? • c) During the last week, did you experience adequate relief of your abnormal bowel habits? • The subjects rated the following symptoms using the phone diary at the end of each day: • abdominal pain/discomfort (five-point scale); • stool consistency (seven-point Bristol Stool Scale); • stool frequency (number of bowel movements each day); • urgency (five-point scale); • straining (yes or no); • feeling of incomplete defecation (yes or no); • bloating or feeling of abdominal distension (five-point scale). • In Studies S241 A006 and S241.3.009, subjects completed the IBS-QOL Survey at Baseline (Day 1) and at the end of treatment. In Study S24 1.3.0 1 1, subjects completed the IBS-QOL Survey at Baseline (Day 1), at the end of the three-month treatment period, and at the end of rerandomized treatment.
In all three pivotal efficacy studies, the primary and main secondary efficacy parameters were based on the weekly diary questions on adequate relief and included the following: • 1. Number of months (one month equals four weeks) that a subject was a responder for the weekly diary questions on adequate relief. […]

## Cc1nccn1C[C@H]1CCc2c(c3cccc4c3n2CCC4)C1=O [Cilansetron, (R)-(−)-4,5,6,8,9,10-hexahydro-10-[(2-methyl-1H-imidazol-1-yl)methyl]-11H-pyrido-[3,2,1-jk]-carbazol-11-one]
Each month of Months 4 to 6
  Responder rate, adequate relief of abnormal bowel habits: 204 (52) n (%)
Female subjects
  Overall responder rate, adequate relief of IBS symptoms: 132 (63) n (%)
  Overall responder rate, adequate relief of abdominal pain/discomfort: 133 (64) n (%)
  Overall responder rate, adequate relief of abnormal bowel habits: 141 (67) n (%)
Female subjects, Months 1 to 3
  Number of months a subject was a responder: One month (Abdominal pain/discomfort): 30 (14) n (%)
  Number of months a subject was a responder: One month (Abnormal bowel habits): 25 (12) n (%)
  Number of months a subject was a responder: One month (IBS symptoms): 28 (13) n (%)
  Number of months a subject was a responder: Three months (Abdominal pain/discomfort): 93 (44) n (%)
  Number of months a subject was a responder: Three months (Abnormal bowel habits): 91 (44) n (%)
  Number of months a subject was a responder: Three months (IBS symptoms): 82 (39) n (%)
  Number of months a subject was a responder: Two months (Abdominal pain/discomfort): 36 (17) n (%)
  Number of months a subject was a responder: Two months (Abnormal bowel habits): 49 (23) n (%)
  Number of months a subject was a responder: Two months (IBS symptoms): 47 (22) n (%)
  Number of months a subject was a responder: Zero months (Abdominal pain/discomfort): 50 (24) n (%)
  Number of months a subject was a responder: Zero months (Abnormal bowel habits): 44 (21) n (%)
  Number of months a subject was a responder: Zero months (IBS symptoms): 52 (25) n (%)
Male subjects
  Overall responder rate, adequate relief of IBS symptoms: 102 (55) n (%)
  Overall responder rate, adequate relief of abdominal pain/discomfort: 106 (57) n (%)
  Overall responder rate, adequate relief of abnormal bowel habits: 112 (60) n (%)
Male subjects, Months 1 to 3
  Number of months a subject was a responder: One month (Abdominal pain/discomfort): 31 (17) n (%)
  Number of months a subject was a responder: One month (Abnormal bowel habits): 24 (13) n (%)
  Number of months a subject was a responder: One month (IBS symptoms): 27 (15) n (%)
  Number of months a subject was a responder: Three months (Abdominal pain/discomfort): 66 (35) n (%)
  Number of months a subject was a responder: Three months (Abnormal bowel habits): 74 (40) n (%)
  Number of months a subject was a responder: Three months (IBS symptoms): 68 (37) n (%)
  Number of months a subject was a responder: Two months (Abdominal pain/discomfort): 34 (18) n (%)
  Number of months a subject was a responder: Two months (Abnormal bowel habits): 34 (18) n (%)
  Number of months a subject was a responder: Two months (IBS symptoms): 33 (18) n (%)
  Number of months a subject was a responder: Zero months (Abdominal pain/discomfort): 55 (30) n (%)
  Number of months a subject was a responder: Zero months (Abnormal bowel habits): 54 (29) n (%)
  Number of months a subject was a responder: Zero months (IBS symptoms): 58 (31) n (%)
Month 1
  Responder rate, adequate relief of IBS symptoms: 193 (49) n (%)
  Responder rate, adequate relief of abdominal pain/discomfort: 199 (50) n (%)
  Responder rate, adequate relief of abnormal bowel habits: 214 (54) n (%)
Month 2
  Responder rate, adequate relief of IBS symptoms: 233 (59) n (%)
  Responder rate, adequate relief of abdominal pain/discomfort: 237 (60) n (%)
  Responder rate, adequate relief of abnormal bowel habits: 245 (62) n (%)
Month 3
  Responder rate, adequate relief of IBS symptoms: 239 (61) n (%)
  Responder rate, adequate relief of abdominal pain/discomfort: 242 (61) n (%)
  Responder rate, adequate relief of abnormal bowel habits: 251 (64) n (%)
Month 4
  Responder rate, adequate relief of IBS symptoms: 237 (60) n (%)
  Responder rate, adequate relief of abdominal pain/discomfort: 241 (61) n (%)
  Responder rate, adequate relief of abnormal bowel habits: 245 (62) n (%)
Month 5
  Responder rate, adequate relief of IBS symptoms: 237 (60) n (%)
  Responder rate, adequate relief of abdominal pain/discomfort: 242 (61) n (%)
  Responder rate, adequate relief of abnormal bowel habits: 247 (63) n (%)
Month 6
  Responder rate, adequate relief of IBS symptoms: 233 (59) n (%)
  Responder rate, adequate relief of abdominal pain/discomfort: 237 (60) n (%)
  Responder rate, adequate relief of abnormal bowel habits: 243 (62) n (%)
Months 1 to 3
  Median adequate relief rate, IBS symptoms: 0.58
  Median adequate relief rate, abdominal pain/discomfort: 0.58
  Median adequate relief rate, abnormal bowel habits: 0.67
  Overall responder rate, abdominal pain/discomfort: 56%
  Overall responder rate, abnormal bowel habits: 62%
Months 1 to 3, observed case
  Overall responder rate, IBS symptoms: 55%
Months 1 to 6
  Median adequate relief rate, IBS symptoms: 0.64
  Median adequate relief rate, abdominal pain/discomfort: 0.63
  Median adequate relief rate, abnormal bowel habits: 0.70
Romania
  Overall responder rate difference vs placebo across diary questions: −29% to −8
South Africa
  Overall responder rate difference vs placebo, each diary question: −23%
